Experimental findings from US9433622B2, “Pyrimidine compounds useful in the treatment of diseases mediated by IKKE and/or TBK1 mechanisms” (DOMAINEX LIMITED, priority 2013, dated 2016) are described below.

One assay addresses IKKε (Homo sapiens (Human), UniProt Q14164). Nature of the assay: Lanthascreen TR-FRET kinase inhibition assay, IKKε. The format is biochemical. As for the experimental part: (§1) Compounds of the invention (synthesised as described below) were tested for activity against the IKKε and TBK-1 enzyme as follows:
(§2) Inhibitions studies were performed using a time-resolved fluorescence-based Lanthascreen™ assay. Phosphorylation of a fluorescein-labelled substrate peptide is measured using terbium-labeled phosphospecific antibodies.
(§3) Kinase inhibition assays (10 μL) were performed at 20° C. in 384-well plate format. […] The final reaction conditions contained 400 nM fluorescein-IkBα substrate ([…]), 20 μM ATP, 2 nM or 8 nM IKKε or TBK1 kinase respectively, and 3% DMSO in kinase assay buffer consisting of 50 mM HEPES (pH 7.5), 10 mM MgCl, 1 mM EGTA, 0.01% Brij-35.
(§4) Compound dilutions were prepared from 10 mM DMSO stocks by dilution into DMSO.
(§5) The kinase phosphorylation assay was initiated by the addition of the kinase and the reaction was allowed to proceed for 1 h or 2.5 h for IKKε and TBK-1 kinase respectively.
Background: TR-FRET usually uses a lanthanide donor and a delayed reading to cut background.

The next assay addresses TBK1 (Homo sapiens (Human), UniProt Q9UHD2). Nature of the assay: Lanthascreen TR-FRET kinase inhibition assay, TBK1. The class given is biochemical. The protocol:
as §1, §2, §3, §4, §5

Setting [1] is: 20 μM ATP (apparent Km), 2 nM kinase, 1 h.
Where [2] appears, read: 20 μM ATP (apparent Km), 8 nM kinase, 2.5 h.

SMILES strings stand for the structures. Where two headings read alike, the source gives them in different places.

Chain of IKKε (Q14164 whole entry): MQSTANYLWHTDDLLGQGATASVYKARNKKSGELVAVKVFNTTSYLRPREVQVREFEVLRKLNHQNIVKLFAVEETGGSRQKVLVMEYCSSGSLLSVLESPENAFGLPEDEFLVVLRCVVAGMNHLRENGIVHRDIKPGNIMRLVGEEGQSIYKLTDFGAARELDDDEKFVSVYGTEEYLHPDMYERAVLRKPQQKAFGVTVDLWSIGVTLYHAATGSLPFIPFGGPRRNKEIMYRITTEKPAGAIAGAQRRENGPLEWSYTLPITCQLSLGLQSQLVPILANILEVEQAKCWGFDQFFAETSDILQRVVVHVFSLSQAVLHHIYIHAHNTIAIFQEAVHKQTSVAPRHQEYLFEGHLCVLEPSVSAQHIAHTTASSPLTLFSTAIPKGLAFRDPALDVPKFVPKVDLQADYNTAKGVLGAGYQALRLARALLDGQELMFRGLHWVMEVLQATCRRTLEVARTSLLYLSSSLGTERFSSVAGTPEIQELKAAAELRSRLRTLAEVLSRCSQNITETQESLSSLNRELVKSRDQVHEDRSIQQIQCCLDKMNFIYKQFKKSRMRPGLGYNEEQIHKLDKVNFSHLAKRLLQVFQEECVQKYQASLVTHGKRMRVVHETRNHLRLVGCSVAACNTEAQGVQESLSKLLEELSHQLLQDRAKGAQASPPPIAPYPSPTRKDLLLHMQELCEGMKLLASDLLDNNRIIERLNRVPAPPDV
Chain of TBK1 (Q9UHD2 whole entry): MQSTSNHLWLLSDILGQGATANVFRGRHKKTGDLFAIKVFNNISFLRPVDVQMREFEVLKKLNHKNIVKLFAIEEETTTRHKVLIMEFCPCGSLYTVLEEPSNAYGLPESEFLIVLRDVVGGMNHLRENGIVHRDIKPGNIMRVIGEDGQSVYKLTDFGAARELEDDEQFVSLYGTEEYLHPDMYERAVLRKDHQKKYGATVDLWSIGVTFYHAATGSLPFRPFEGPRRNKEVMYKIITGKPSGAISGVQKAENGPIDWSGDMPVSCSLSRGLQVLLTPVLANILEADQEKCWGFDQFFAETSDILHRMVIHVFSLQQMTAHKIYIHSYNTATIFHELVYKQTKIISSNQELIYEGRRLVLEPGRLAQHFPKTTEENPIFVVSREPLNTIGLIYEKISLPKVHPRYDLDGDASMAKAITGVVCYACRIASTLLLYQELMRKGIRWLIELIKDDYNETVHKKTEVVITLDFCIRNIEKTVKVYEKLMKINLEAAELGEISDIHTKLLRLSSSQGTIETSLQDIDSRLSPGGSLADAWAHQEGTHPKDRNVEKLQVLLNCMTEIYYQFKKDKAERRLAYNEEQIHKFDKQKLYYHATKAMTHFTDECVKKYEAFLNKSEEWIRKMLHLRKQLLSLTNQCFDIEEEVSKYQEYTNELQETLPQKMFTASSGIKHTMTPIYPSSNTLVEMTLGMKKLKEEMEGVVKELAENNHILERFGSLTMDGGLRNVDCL

What is called IC50 is the point on the concentration scale where inhibition reaches its midpoint. Take `CN1CCC(NC(=O)c2ccc(Nc3ncc(F)c(-c4cnc(N5CC[C@H](F)C5)c(C#N)c4)n3)cc2)CC1` [DMX-28, 4-{4-[5-Cyano-6-((S)-3-fluoro-pyrrolidin-1-yl)-pyridin-3-yl]-5-fluoro-pyrimidin-2-ylamino}-N-(1-methyl-piperidin-4-yl)-benzamide]: the IC50 on IKKε (setting [1]) and at TBK1 (setting [2]) was less than 15 nM in each case.

For the compound `N#Cc1cc(-c2ccnc(Nc3ccc(NC(=O)CN4CCC(O)CC4)nc3)n2)cnc1N1CC[C@H](F)C1` [DMX-29, N-(5-{4-[5-Cyano-6-((S)-3-fluoro-pyrrolidin-1-yl)-pyridin-3-yl]-pyrimidin-2-ylamino}-pyridin-2-yl)-2-(4-hydroxy-piperidin-1-yl)-acetamide], the half-inhibitory concentration (IC50) at IKKε (setting [1]) and on TBK1 (setting [2]) was less than 30 nM throughout.

As for `N#Cc1cc(-c2ccnc(Nc3ccc(CN4CCOCC4)cc3)n2)cnc1N1CC[C@H](F)C1` [DMX-30, 2-((S)-3-Fluoro-pyrrolidin-1-yl)-5-[2-(4-morpholin-4-ylmethyl-phenylamino)-pyrimidin-4-yl]-nicotinonitrile], the IC50 at IKKε (setting [1]) and at TBK1 (setting [2]) was less than 15 nM in each case.

Take `N#Cc1cc(-c2ccnc(Nc3ccc(NC(=O)CN4CCNCC4)nc3)n2)cnc1N1CC[C@H](F)C1` [DMX-31, N-(5-{4-[5-Cyano-6-((S)-3-fluoro-pyrrolidin-1-yl)-pyridin-3-yl]-pyrimidin-2-ylamino}-pyridin-2-yl)-2-piperazin-1-yl-acetamide]: the IC50 was less than 100 nM at IKKε (setting [1]) and less than 30 nM at TBK1 (setting [2]).

For `CC(C(=O)Nc1ccc(Nc2nccc(-c3cnc(N4CC[C@H](F)C4)c(C#N)c3)n2)cn1)N1CCOCC1` (stereo partly drawn) [DMX-32, N-(5-{4-[5-Cyano-6-((S)-3-fluoro-pyrrolidin-1-yl)-pyridin-3-yl]-pyrimidin-2-ylamino}-pyridin-2-yl)-2-morpholin-4-yl-propionamide], the half-maximal inhibitory concentration (IC50) on IKKε (setting [1]) and at TBK1 (setting [2]) was less than 30 nM each time.

As to `N#Cc1cc(-c2ccnc(Nc3cnn(C4CCOCC4)c3)n2)cnc1N1CC[C@H](F)C1` [DMX-33, 2-((S)-3-Fluoro-pyrrolidin-1-yl)-5-{2-[1-(tetrahydro-pyran-4-yl)-1H-pyrazol-4-ylamino]-pyrimidin-4-yl}-nicotinonitrile], the IC50 at IKKε (setting [1]) and at TBK1 (setting [2]) was less than 15 nM in each case.

In the case of `N#Cc1cc(-c2ccnc(Nc3ccnc(NC(=O)CN4CCOCC4)c3)n2)cnc1N1CC[C@H](F)C1` [DMX-34, N-(4-{4-[5-Cyano-6-((S)-3-fluoro-pyrrolidin-1-yl)-pyridin-3-yl]-pyrimidin-2-ylamino}-pyridin-2-yl)-2-morpholin-4-yl-acetamide], the IC50 on IKKε (setting [1]) and at TBK1 (setting [2]) was less than 30 nM in each case.

On to `N#Cc1cc(-c2ccnc(Nc3ccc(NC(=O)CN4CC[C@H](O)C4)nc3)n2)cnc1N1CC[C@H](F)C1` [DMX-35, N-(5-{4-[5-Cyano-6-((S)-3-fluoro-pyrrolidin-1-yl)-pyridin-3-yl]-pyrimidin-2-ylamino}-pyridin-2-yl)-2-((S)-3-hydroxy-pyrrolidin-1-yl)-acetamide], for which the IC50 at IKKε is less than 30 nM; at TBK1 (setting [2]), less than 100 nM.

Consider `N#Cc1cc(-c2ccnc(Nc3cnn(CCO)c3)n2)cnc1N1CCCC1` [DMX-36, 5-{2-[1-(2-Hydroxy-ethyl)-1H-pyrazol-4-ylamino]-pyrimidin-4-yl}-2-pyrrolidin-1-yl-nicotinonitrile], for which the IC50 at IKKε (setting [1]) and on TBK1 (setting [2]) was less than 30 nM in each case.

For `N#Cc1cc(-c2ccnc(Nc3ccc(C(N)=O)cc3)n2)cnc1N1CCCC1` [DMX-37, 4-[4-(5-Cyano-6-pyrrolidin-1-yl-pyridin-3-yl)-pyrimidin-2-ylamino]-benzamide], the IC50 at IKKε (setting [1]) and at TBK1 (setting [2]) was less than 15 nM in each case.

As for `N#Cc1cc(-c2ccnc(Nc3cnn(C[C@H](O)CO)c3)n2)cnc1N1CCCC1` [DMX-38, 5-{2-[1-((S)-2,3-Dihydroxy-propyl)-1H-pyrazol-4-ylamino]-pyrimidin-4-yl}-2-pyrrolidin-1-yl-nicotinonitrile], the IC50 on IKKε (setting [1]) was less than 100 nM; on TBK1 (setting [2]), less than 15 nM.

Take `N#Cc1cc(-c2ccnc(Nc3cnn(C[C@@H](O)CO)c3)n2)cnc1N1CCCC1` [DMX-39, 5-{2-[1-((R)-2,3-Dihydroxy-propyl)-1H-pyrazol-4-ylamino]-pyrimidin-4-yl}-2-pyrrolidin-1-yl-nicotinonitrile]: the IC50 is less than 30 nM on IKKε (setting [1]) and less than 15 nM at TBK1 (setting [2]).

On to `Cn1cc(Nc2nccc(-c3cnc(N4CCC[C@@H]4C(=O)O)c(C#N)c3)n2)cn1` [DMX-40, (R)-1-{3-Cyano-5-[2-(1-methyl-1H-pyrazol-4-ylamino)-pyrimidin-4-yl]-pyridin-2-yl}-pyrrolidine-2-carboxylic acid], for which the figures for the IC50 at IKKε (setting [1]) and at TBK1 (setting [2]) were less than 9000 nM and less than 1000 nM, respectively.

On to `Cn1cc(NC(=O)[C@H]2CCCN2c2ncc(-c3ccnc(Nc4cnn(C)c4)n3)cc2C#N)cn1` [DMX-41, (R)-1-{3-Cyano-5-[2-(1-methyl-1H-pyrazol-4-ylamino)-pyrimidin-4-yl]-pyridin-2-yl}-pyrrolidine-2-carboxylic acid (1-methyl-1H-pyrazol-4-yl)-amide], for which the IC50 is less than 1000 nM at IKKε (setting [1]) and less than 100 nM at TBK1 (setting [2]).

In the case of `Cn1cc(Nc2nccc(-c3cnc(N4CCC[C@H]4C#N)c(C#N)c3)n2)cn1` [DMX-42, 2-((S)-2-Cyano-pyrrolidin-1-yl)-5-[2-(1 methyl-1H-pyrazol-4-ylamino)-pyrimidin-4-yl]-nicotinonitrile], the IC50 at IKKε (setting [1]) is less than 1000 nM; on TBK1 (setting [2]) it was less than 100 nM.

For the compound `Cn1cc(Nc2nccc(-c3cnc(N4CCC[C@@H]4C(N)=O)c(C#N)c3)n2)cn1` [DMX-43, (R)-1-{3-Cyano-5-[2-(1-methyl-1H-pyrazol-4-ylamino)-pyrimidin-4-yl]-pyridin-2-yl}-pyrrolidine-2-carboxylic acid amide], the IC50 at IKKε (setting [1]) and at TBK1 (setting [2]) was less than 100 nM throughout.

As for `Cn1cc(Nc2nccc(-c3cnc(N4C5CCC4CC(O)C5)c(C#N)c3)n2)cn1` (stereo not drawn) [DMX-44, 2-(3-Hydroxy-8-aza-bicyclo[3.2.1]oct-8-yl)-5-[2-(1-methyl-1H-pyrazol-4-ylamino)-pyrimidin-4-yl]-nicotinonitrile], the IC50 on IKKε was less than 30 nM; against TBK1, less than 15 nM.

For the compound `Cn1cc(Nc2nccc(-c3cnc(N4C5CCC4COC5)c(C#N)c3)n2)cn1` [DMX-45, 5-[2-(1-Methyl-1H-pyrazol-4-ylamino)-pyrimidin-4-yl]-2-(3-oxa-8-aza-bicyclo[3.2.1]oct-8-yl)-nicotinonitrile], the IC50 at IKKε (setting [1]) and on TBK1 (setting [2]) was less than 100 nM in each case.

In the case of `N#Cc1cc(-c2ccnc(Nc3cnn(CCO)c3)n2)cnc1N1C2CCC1COC2` [DMX-46, 5-{2-[1-(2-Hydroxy-ethyl)-1H-pyrazol-4-ylamino]-pyrimidin-4-yl}-2-(3-oxa-8-aza-bicyclo[3.2.1]oct-8-yl)-nicotinonitrile], the results for the 50% inhibitory concentration (IC50) on IKKε (setting [1]) and on TBK1 (setting [2]) were less than 1000 nM and less than 100 nM, respectively.

Consider `N#Cc1cc(-c2ccnc(Nc3ccc(C(N)=O)nc3)n2)cnc1N1CC[C@H](F)C1` [DMX-47, 5-{4-[5-Cyano-6-((S)-3-fluoro-pyrrolidin-1-yl)-pyridin-3-yl]-pyrimidin-2-ylamino}-pyridine-2-carboxylic acid amide], for which the 50% inhibitory concentration (IC50) on IKKε (setting [1]) and on TBK1 (setting [2]) was less than 30 nM in each case.

As to `N#Cc1cc(-c2ccnc(Nc3ccc(C(=O)NCCO)cc3)n2)cnc1N1CC[C@H](F)C1` [DMX-48, 4-{4-[5-Cyano-6-((S)-3-fluoro-pyrrolidin-1-yl)-pyridin-3-yl]-pyrimidin-2-ylamino}-N-(2-hydroxy-ethyl)-benzamide], the IC50 at IKKε (setting [1]) and on TBK1 (setting [2]) was less than 15 nM throughout.

Take `N#Cc1cc(-c2ccnc(Nc3ccc(N4CCOCC4)cc3)n2)cnc1N1CC[C@H](O)C1` [DMX-49, 2-((S)-3-Hydroxy-pyrrolidin-1-yl)-5-[2-(4-morpholin-4-yl-phenylamino)-pyrimidin-4-yl]-nicotinonitrile]: the IC50 at IKKε (setting [1]) and at TBK1 (setting [2]) was less than 15 nM throughout.

Regarding `N#Cc1cc(-c2ccnc(Nc3ccc(N4CCOCC4)nc3)n2)cnc1N1CC[C@H](O)C1` [DMX-50, 2-((S)-3-Hydroxy-pyrrolidin-1-yl)-5-[2-(6-morpholin-4-yl-pyridin-3-ylamino)-pyrimidin-4-yl]-nicotinonitrile], the IC50 is less than 100 nM on IKKε (setting [1]) and less than 30 nM at TBK1 (setting [2]).

Consider `N#Cc1cc(-c2ccnc(Nc3cnn(CCO)c3)n2)cnc1N1CC[C@H](F)C1` [DMX-51, 2-((S)-3-Fluoro-pyrrolidin-1-yl)-5-{2-[1-(2-hydroxy-ethyl)-1H-pyrazol-4-ylamino]-pyrimidin-4-yl}-nicotinonitrile], for which the half-inhibitory concentration (IC50) at IKKε (setting [1]) and on TBK1 (setting [2]) was less than 30 nM in each case.

As for `N#Cc1cc(-c2ccnc(Nc3cnn(CCCO)c3)n2)cnc1N1CC[C@H](F)C1` [DMX-52, 2-((S)-3-Fluoro-pyrrolidin-1-yl)-5-{2-[1-(3-hydroxy-propyl)-1H-pyrazol-4-ylamino]-pyrimidin-4-yl}-nicotinonitrile], the IC50 was less than 100 nM at IKKε (setting [1]) and less than 30 nM at TBK1 (setting [2]).

Regarding `N#Cc1cc(-c2ccnc(Nc3cnn(CCN4CCOCC4)c3)n2)cnc1N1CC[C@H](F)C1` [DMX-53, 2-((S)-3-Fluoro-pyrrolidin-1-yl)-5-{2-[1-(2-morpholin-4-yl-ethyl)-1H-pyrazol-4-ylamino]-pyrimidin-4-yl}-nicotinonitrile], the IC50 at IKKε (setting [1]) was less than 100 nM; on TBK1 (setting [2]) it was less than 30 nM.

`COCCNCC(=O)Nc1ccc(Nc2nccc(-c3cnc(N4CC[C@H](F)C4)c(C#N)c3)n2)cn1` [DMX-54, N-(5-{4-[5-Cyano-6-((S)-3-fluoro-pyrrolidin-1-yl)-pyridin-3-yl]-pyrimidin-2-ylamino}-pyridin-2-yl)-2-(2-methoxy-ethylamino)-acetamide]: the half-maximal inhibitory concentration (IC50) on IKKε (setting [1]) is less than 30 nM; at TBK1 (setting [2]), less than 100 nM.
